T1: SbzB (Streptomyces sp., UniProt P0DY32)
T1 construct: pET28a NdeI/HindIII, His-tagged, E. coli Rosetta2 (DE3), Ni-NTA
T1 sequence (P0DY32 1-532): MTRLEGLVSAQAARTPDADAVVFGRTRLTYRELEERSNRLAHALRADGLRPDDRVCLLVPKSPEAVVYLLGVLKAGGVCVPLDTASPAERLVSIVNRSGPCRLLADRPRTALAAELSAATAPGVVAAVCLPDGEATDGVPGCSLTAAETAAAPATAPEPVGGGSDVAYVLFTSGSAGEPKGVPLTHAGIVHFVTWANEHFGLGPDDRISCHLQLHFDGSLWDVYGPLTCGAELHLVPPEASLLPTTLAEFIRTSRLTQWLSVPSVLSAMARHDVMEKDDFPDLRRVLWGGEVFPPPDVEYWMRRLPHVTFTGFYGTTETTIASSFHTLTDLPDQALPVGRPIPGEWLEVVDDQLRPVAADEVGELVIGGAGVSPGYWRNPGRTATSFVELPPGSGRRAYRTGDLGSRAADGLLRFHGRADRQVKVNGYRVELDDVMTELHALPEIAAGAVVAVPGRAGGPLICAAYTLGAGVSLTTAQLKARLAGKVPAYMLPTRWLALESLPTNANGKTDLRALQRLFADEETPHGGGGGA


Columns and labels:
[1] = target: T1, SbzB; assay: malachite green adenylation assay with hydroxylamine; chiral HPLC; format: biochemical; details: 0.5 mM ATP, 10 mM MgCl2, Tris-HCl pH 7.5, 30 °C
[2] = substrate: N[C@@H](CS)C(=O)O; assay: LC-MS quantification of substrate consumption; format: biochemical, Streptomyces sp.; details: 50 mM Tris pH 9.0, 30 °C, TCEP, 6 μM SbzM, 2 min, n = 2

Row | Molecule | malachite green adenylation assay with hydroxylamine; chiral HPLC [1] | Km [2] [µM]
1 | C[C@H](c1ccccc1)[C@H](N)C(=O)O [(2S, 3R)-β-methylphenylalanine] | SbzB indeed selectively adenylated (2S, 3R)-β-methylphenylalanine as the best substrate | 
2 | SbzM (Streptomyces sp.) (protein, pET28a NdeI/HindIII, His-tagged, E. coli Rosetta2 (DE3), Ni-NTA; tag cleavage not mentioned) MSTQQVIAMLTEELHDLDPAERQAKTVELLAVFGRAKAEALQPEERPEAPDTKPGPLLICDWAADLGLDGTTQQLGIEVAPGPTKVTKTADATGHSLASSGHVGADILHVPAGSGFAPHTHPGDHLLFVLAGTGTIAVAGEIVRTRPGQVYMVQGDITHAVGAVTDHMILSVGAPHRRLDSPDRQELTAYAALLGELGEITCRLCDISAAGGEELAAKGCTHSPHRFG |  | 530 ± 80
